11 molecules from ChEMBL document CHEMBL1137531, “Structure-based design and synthesis of (5-arylamino-2H-pyrazol-3-yl)-biphenyl-2',4'-diols as novel and potent human CHK1 inhibitors” (J Med Chem, 2007) can be followed below.

The source made the active and inactive calls. No cut-off for these calls is given here. Some results are limits rather than exact numbers.

Broadly, the EC50 is the midpoint of the concentration-response curve. Read a low EC50 as greater potency. Usually Ki stands for the dissociation constant of the complex between target and ligand, obtained from inhibition or displacement. For orientation: inhibition means the drop in the measured response relative to a control, in per cent. The IC50 is the concentration at which inhibition is half-maximal.

Test [1] addresses T1, Serine/threonine-protein kinase Chk1 (Homo sapiens, UniProt O14757).
T1 sequence (O14757 whole entry): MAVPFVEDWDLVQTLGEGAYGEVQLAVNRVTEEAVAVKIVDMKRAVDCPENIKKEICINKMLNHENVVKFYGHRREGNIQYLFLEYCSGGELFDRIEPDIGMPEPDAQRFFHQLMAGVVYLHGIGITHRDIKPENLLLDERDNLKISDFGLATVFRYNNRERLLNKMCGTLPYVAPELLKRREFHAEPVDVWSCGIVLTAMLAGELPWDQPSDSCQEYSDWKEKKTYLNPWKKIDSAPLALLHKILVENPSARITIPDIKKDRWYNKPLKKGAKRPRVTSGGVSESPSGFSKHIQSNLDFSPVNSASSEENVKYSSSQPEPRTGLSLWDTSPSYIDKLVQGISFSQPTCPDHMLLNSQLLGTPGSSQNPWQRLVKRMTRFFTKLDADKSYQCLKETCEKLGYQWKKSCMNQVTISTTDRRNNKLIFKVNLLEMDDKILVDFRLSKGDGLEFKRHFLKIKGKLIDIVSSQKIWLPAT
Put plainly: Activity at human CHK1 in CA46 cells by histone H3 ELISA assay. The class given is cell-based. A general note: In an ELISA, binding on a coated surface is turned into a signal by an enzyme label.

Test [2] concerns the target T1, Serine/threonine-protein kinase Chk1. Put plainly: Inhibition of human CHK1 expressed in baculovirus/insect cell system.
The next test deals with MDA-MB-231. As to the kind of experiment: Cell cycle arrest in MDA-MB-231 cells assessed as accumulation at S phase by FACS analysis. The format is functional, cell-based. The following applies: Homo sapiens.
The target in test [3] is Proto-oncogene tyrosine-protein kinase Src (Homo sapiens) (UniProt P12931). As to the kind of experiment: Inhibition of SRC at 1 uM.
Test [4] addresses Inhibitor of nuclear factor kappa-B kinase subunit epsilon (Homo sapiens) (UniProt Q14164). Put plainly: Inhibition of IKKi at 1 uM.
The target of another test is Insulin receptor (Homo sapiens, UniProt P06213). As to the kind of experiment: Inhibition of INSR.
Test [5] can be described thus: Inhibition of bovine PKA.
Test [6] in a line: Inhibition of human VEGFR expressed in baculovirus/insect cell system by FLVK-P assay.
Test [7] concerns the target Calcium/calmodulin-dependent protein kinase type 1 (Homo sapiens, UniProt Q14012). As to the kind of experiment: Inhibition of CAMK1.
The next test has as its target Aurora kinase A (Homo sapiens, UniProt O14965). Put plainly: Inhibition of Aurora A.
Test [8] addresses Protein kinase C zeta type (Homo sapiens) (UniProt Q05513). Put plainly: Inhibition of PKCzeta at 1 uM.
For test [9], the target named is Casein kinase II (Homo sapiens) (UniProt P67870+P68400+P19784). As to the kind of experiment: Inhibition of CK2 at 1 uM. The class given is protein-complex assay.
The target in test [10] is Tyrosine-protein kinase ABL1 (Homo sapiens, UniProt P00519). As to the kind of experiment: Inhibition of ABL.
Test [11] concerns the target Serine/threonine-protein kinase pim-2 (Homo sapiens, UniProt Q9P1W9). Put plainly: Inhibition of PIM2.
Test [12] deals with Mitogen-activated protein kinase 1 (Homo sapiens) (UniProt P28482). As to the kind of experiment: Inhibition of human MAPK1 at 1 uM.
Mitogen-activated protein kinase 1 (Homo sapiens), sequence (P28482 whole entry): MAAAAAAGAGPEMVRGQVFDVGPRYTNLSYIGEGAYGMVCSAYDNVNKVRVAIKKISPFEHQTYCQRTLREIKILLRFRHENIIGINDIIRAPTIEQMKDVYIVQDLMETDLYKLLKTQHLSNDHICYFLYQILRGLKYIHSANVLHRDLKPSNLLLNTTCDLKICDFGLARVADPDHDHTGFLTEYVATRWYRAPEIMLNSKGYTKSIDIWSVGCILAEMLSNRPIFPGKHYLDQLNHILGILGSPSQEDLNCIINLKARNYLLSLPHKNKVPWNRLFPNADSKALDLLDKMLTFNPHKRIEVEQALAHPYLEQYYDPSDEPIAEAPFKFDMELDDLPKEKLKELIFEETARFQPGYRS
Test [13] addresses T2, RAC-alpha serine/threonine-protein kinase (Homo sapiens, UniProt P31749). Put plainly: Inhibition of AKT1.
For test [14], the target named is Serine/threonine-protein kinase Nek2 (Homo sapiens, UniProt P51955). Put plainly: Inhibition of NEK2.
Test [15] has as its target T2, RAC-alpha serine/threonine-protein kinase. As to the kind of experiment: Inhibition of AKT1 at 1 uM.
For test [16], the target named is Serine/threonine-protein kinase 26 (Homo sapiens, UniProt Q9P289). As to the kind of experiment: Inhibition of MASK.
Test [17] has as its target Protein kinase C alpha type (Homo sapiens) (UniProt P17252). As to the kind of experiment: Inhibition of PKCalpha at 1 uM.
The target of test [18] is Mitogen-activated protein kinase 1 (Homo sapiens) (UniProt P28482). Put plainly: Inhibition of ERK2 at 1 uM.
Test [19] has as its target Protein kinase C beta type (Homo sapiens) (UniProt P05771). As to the kind of experiment: Inhibition of PKCbeta at 1 uM.
The target in test [20] is Glycogen synthase kinase-3 beta (Homo sapiens) (UniProt P49841). Put plainly: Inhibition of GSK3-beta at 1 uM.
Test [21] deals with MAP kinase-activated protein kinase 2 (Mus musculus) (UniProt P49138). Put plainly: Inhibition of mouse MAPKAP2 at 1 uM.
Test [22] deals with Serine/threonine-protein kinase PAK 4 (Homo sapiens, UniProt O96013). Put plainly: Inhibition of PAK4.
Test [23] deals with Cyclin-dependent kinase 2 (Homo sapiens) (UniProt P24941). As to the kind of experiment: Inhibition of CDK2 at 1 uM.
The target in test [24] is Inhibitor of nuclear factor kappa-B kinase subunit beta (Homo sapiens) (UniProt O14920). Put plainly: Inhibition of IKK-beta at 1 uM.
Inhibitor of nuclear factor kappa-B kinase subunit beta (Homo sapiens), sequence (O14920 whole entry): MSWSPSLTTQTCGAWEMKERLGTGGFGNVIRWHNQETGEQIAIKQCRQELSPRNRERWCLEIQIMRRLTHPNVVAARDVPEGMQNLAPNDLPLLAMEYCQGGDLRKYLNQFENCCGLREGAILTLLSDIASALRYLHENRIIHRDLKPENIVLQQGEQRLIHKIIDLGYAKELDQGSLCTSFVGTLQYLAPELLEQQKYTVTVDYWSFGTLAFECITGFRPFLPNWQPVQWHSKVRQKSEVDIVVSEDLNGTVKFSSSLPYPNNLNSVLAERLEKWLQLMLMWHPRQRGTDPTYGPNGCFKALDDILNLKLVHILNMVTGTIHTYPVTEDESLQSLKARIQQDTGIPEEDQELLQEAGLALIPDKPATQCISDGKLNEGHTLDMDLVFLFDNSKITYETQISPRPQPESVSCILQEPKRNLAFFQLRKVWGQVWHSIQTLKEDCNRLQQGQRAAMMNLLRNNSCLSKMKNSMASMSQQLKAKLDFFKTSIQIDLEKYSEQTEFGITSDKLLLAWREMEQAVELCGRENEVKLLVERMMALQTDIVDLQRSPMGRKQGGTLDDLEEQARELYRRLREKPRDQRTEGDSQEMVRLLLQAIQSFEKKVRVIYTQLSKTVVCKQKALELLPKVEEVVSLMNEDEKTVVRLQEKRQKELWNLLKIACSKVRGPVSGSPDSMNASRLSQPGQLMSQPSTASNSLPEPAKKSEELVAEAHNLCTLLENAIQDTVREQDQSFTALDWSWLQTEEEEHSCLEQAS
Test [25] addresses Tyrosine-protein kinase Lck (Homo sapiens, UniProt P06239). Put plainly: Inhibition of human LCK.
Test [26] has as its target Cyclin-dependent kinase 1 (Homo sapiens, UniProt P06493). Put plainly: Inhibition of CDK1 expressed in Sf21 cells.
Test [27] has as its target Rho-associated protein kinase 1 (Homo sapiens) (UniProt Q13464). Put plainly: Inhibition of ROCK1 activity at 1 uM.
The target of test [28] is Serine/threonine-protein kinase Sgk1 (Homo sapiens, UniProt O00141). As to the kind of experiment: Inhibition of human SGK.
Serine/threonine-protein kinase Sgk1, sequence (O00141 whole entry): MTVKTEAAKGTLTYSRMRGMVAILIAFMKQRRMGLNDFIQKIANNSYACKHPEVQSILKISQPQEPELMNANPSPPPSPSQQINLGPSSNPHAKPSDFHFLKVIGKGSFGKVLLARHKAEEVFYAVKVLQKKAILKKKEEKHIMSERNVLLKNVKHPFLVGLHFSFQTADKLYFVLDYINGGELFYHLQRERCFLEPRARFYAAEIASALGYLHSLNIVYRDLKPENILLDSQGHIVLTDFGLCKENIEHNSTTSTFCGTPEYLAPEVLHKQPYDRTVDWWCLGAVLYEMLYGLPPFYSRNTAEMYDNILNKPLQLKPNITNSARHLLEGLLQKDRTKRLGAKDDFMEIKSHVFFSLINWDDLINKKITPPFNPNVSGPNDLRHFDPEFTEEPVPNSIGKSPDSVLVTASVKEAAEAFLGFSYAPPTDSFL
Test [29] deals with Dual specificity protein kinase CLK1 (Homo sapiens) (UniProt P49759). As to the kind of experiment: Inhibition of CLK at 1 uM.
Dual specificity protein kinase CLK1 (Homo sapiens), sequence (P49759 whole entry, looked up): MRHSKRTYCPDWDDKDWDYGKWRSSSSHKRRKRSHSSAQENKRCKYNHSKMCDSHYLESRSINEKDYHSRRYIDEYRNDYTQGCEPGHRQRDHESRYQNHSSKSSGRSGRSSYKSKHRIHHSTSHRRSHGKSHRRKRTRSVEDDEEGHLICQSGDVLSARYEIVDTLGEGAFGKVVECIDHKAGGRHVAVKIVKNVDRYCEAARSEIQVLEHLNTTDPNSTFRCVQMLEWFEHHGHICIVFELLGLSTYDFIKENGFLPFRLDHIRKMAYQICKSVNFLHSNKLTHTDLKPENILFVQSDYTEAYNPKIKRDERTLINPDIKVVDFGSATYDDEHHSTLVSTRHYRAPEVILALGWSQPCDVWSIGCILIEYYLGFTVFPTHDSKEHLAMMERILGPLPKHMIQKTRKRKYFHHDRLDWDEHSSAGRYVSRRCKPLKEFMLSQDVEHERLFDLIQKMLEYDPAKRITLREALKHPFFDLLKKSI
The target of test [30] is Serine/threonine-protein kinase Chk2 (Homo sapiens) (UniProt O96017). Put plainly: Inhibition of human CHK2 expressed in Escherichia coli at 1 uM.
The target of test [31] is 3-phosphoinositide-dependent protein kinase 1 (Homo sapiens) (UniProt O15530). As to the kind of experiment: Inhibition of human PDK1 at 1 uM.
3-phosphoinositide-dependent protein kinase 1 (Homo sapiens), sequence (O15530 whole entry, looked up): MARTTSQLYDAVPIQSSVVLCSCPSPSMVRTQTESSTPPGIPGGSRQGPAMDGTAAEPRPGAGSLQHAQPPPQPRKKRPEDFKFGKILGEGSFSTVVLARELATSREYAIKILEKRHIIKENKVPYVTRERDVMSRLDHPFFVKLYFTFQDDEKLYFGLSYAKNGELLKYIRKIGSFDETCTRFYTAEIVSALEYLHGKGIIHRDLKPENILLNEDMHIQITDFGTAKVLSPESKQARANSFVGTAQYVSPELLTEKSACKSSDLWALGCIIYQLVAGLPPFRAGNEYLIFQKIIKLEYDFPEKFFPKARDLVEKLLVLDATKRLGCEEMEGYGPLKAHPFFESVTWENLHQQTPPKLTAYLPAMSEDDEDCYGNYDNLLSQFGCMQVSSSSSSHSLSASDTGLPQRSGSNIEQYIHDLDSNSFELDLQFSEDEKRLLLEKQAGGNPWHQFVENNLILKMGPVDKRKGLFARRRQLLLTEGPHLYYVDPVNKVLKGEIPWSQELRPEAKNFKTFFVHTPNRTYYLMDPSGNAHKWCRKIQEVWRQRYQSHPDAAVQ
Test [32] concerns the target Serine/threonine-protein kinase Chk1 (Homo sapiens) (UniProt O14757). As to the kind of experiment: Activity at human CHK1 in CA46 cells by histone H3 ELISA assay at 1.0 uM. The format is cell-based.
Test [33] shares this target. Put plainly: Activity at human CHK1 in CA46 cells by histone H3 ELISA assay at 10 uM. The format is cell-based.

T2 sequence (P31749 whole entry): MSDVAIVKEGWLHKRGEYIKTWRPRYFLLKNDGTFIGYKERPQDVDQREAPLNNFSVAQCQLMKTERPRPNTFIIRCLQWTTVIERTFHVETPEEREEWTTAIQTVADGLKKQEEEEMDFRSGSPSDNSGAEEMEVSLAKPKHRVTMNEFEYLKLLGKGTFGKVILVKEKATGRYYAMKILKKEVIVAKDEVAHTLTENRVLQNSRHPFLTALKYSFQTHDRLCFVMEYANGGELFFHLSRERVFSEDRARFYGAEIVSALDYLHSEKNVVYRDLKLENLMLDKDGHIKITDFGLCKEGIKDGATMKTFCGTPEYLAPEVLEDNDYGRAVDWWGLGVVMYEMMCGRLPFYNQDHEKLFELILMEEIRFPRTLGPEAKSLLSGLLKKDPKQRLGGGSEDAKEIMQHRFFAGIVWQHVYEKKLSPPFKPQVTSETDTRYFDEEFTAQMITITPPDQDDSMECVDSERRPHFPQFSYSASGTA
Protein kinase C zeta type (Homo sapiens), sequence (Q05513 whole entry): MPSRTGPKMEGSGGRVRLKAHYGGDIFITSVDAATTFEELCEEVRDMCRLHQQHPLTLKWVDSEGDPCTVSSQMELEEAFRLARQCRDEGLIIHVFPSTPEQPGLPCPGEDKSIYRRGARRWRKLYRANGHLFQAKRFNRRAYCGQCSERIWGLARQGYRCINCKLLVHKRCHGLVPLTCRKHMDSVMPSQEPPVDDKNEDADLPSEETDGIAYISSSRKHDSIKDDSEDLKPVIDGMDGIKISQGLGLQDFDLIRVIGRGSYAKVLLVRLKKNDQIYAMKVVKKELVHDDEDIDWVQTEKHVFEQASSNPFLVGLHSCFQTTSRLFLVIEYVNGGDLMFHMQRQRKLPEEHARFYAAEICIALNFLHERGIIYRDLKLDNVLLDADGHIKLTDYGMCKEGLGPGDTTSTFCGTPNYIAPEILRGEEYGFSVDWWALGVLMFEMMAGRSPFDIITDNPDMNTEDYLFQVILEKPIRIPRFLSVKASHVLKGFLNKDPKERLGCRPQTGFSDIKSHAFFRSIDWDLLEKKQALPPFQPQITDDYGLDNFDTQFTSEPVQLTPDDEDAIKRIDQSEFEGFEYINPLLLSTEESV
Calcium/calmodulin-dependent protein kinase type 1, sequence (Q14012 whole entry): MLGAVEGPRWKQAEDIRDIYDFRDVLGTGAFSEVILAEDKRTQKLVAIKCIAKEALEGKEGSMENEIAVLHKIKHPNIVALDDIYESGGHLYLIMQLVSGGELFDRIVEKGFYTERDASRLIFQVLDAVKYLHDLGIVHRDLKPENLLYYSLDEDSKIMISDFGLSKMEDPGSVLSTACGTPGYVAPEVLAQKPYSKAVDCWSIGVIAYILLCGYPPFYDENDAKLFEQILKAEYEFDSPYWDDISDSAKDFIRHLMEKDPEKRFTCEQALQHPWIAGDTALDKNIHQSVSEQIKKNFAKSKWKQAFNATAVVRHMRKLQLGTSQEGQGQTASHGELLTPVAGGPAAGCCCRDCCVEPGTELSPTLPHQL
Protein kinase C beta type (Homo sapiens), sequence (P05771 2-671 limits assumed): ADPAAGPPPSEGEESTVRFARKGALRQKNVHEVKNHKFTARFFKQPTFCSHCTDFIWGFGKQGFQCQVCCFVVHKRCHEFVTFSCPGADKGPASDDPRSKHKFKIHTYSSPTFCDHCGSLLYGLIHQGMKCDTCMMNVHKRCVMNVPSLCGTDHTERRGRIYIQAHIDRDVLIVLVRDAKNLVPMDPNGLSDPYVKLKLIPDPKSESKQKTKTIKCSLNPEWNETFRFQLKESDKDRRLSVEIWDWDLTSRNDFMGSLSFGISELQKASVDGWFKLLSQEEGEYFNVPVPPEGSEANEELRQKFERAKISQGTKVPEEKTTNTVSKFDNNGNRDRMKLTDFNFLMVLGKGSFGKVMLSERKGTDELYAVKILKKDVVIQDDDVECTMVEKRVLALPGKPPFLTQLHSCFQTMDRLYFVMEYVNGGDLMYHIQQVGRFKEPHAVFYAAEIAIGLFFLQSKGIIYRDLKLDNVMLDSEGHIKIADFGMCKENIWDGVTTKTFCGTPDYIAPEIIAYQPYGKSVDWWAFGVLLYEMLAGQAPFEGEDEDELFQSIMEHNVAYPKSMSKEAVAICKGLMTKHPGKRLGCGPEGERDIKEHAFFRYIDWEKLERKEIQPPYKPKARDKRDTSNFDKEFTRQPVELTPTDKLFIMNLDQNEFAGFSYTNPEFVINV
Cyclin-dependent kinase 1, sequence (P06493 whole entry): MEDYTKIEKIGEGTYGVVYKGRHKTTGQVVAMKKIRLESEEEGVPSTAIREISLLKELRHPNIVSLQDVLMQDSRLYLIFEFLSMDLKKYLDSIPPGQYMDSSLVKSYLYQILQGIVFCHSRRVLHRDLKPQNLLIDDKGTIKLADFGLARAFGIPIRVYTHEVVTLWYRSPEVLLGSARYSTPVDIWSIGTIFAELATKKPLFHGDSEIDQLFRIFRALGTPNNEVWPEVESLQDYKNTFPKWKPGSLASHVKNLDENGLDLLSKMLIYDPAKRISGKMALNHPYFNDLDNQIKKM

For the molecule `CN(C)Cc1ccc(Nc2cc(-c3ccc(-c4ccc(O)cc4O)cc3)[nH]n2)cc1`, in test [1], the 50% effective concentration (EC50) is 58 nM. The molecule further gave a Ki in [2] of 0.19 nM.
The matching figures for `CCC(C)NCc1ccc(Nc2cc(-c3ccc(-c4ccc(O)cc4O)cc3)n[nH]2)cn1` (stereo not given): 230 nM and 0.2 nM.
The matching figures for `Oc1ccc(-c2ccc(-c3cc(Nc4ccc(CN5CCCCC5)nc4)[nH]n3)cc2)c(O)c1`: 150 nM and 0.3 nM.
For the molecule `Nc1ccn([C@@H]2O[C@H](CO)[C@@H](O)C2(F)F)c(=O)n1`, the result in the test with MDA-MB-231 was Active.
As to `O=C(Nc1ccc(O)cc1O)c1ccc2c(-c3nc4ccccc4[nH]3)n[nH]c2c1`, the response in [1] was half-maximal at 550 nM (EC50). The molecule also returned an inhibition constant Ki in [2] of 0.5 nM.
As to `CC(C)NCc1ccc(Nc2cc(-c3ccc(-c4ccc(O)cc4O)cc3)[nH]n2)cc1`, the inhibition is 8% in test [3]; 26% in [4]; 18.6% in test [8]; 29% in test [9]; 14.5% in [12]; 7% in test [15]. Moreover, the inhibition in [17] was 0%; in test [18] it was -2%; in test [19], 16%; in test [20] it was 30%; in test [21], 0.7%; in test [23] it was 31%. In addition, the inhibition in [24] came out at 12.7%; in test [27], 13.5%; in test [29] it was 24%; in [30], 27.5%; in test [31] it was 33%. The concentration for half-maximal inhibition (IC50) on Insulin receptor was > 30000 nM; in test [5] it was 860 nM; in [6] it was 1030 nM; in [7], 2130 nM; at Aurora kinase A, 10000 nM; in test [10], 1100 nM. Besides, the IC50 came out at 1720 nM in [11]; 26900 nM in [13]; 1040 nM in test [14]; 1850 nM in [16]; 14400 nM in [22]; 2550 nM in test [25]. Besides, the half-maximal inhibitory concentration (IC50) in test [26] stood at 3300 nM; in test [28], 290 nM.
For `O=C(Nc1ccc(O)cc1)c1ccc2c(-c3nc4ccccc4[nH]3)n[nH]c2c1`, the result in test [32] was inactive. In addition, in test [33], the outcome was Active.
For the molecule `Oc1ccc(-c2ccc(-c3cc(Nc4ccccc4)n[nH]3)cc2)c(O)c1`, in test [1], the midpoint of the response, the EC50, lay at 500 nM. In test [2], this molecule gave an inhibition constant Ki of 1.2 nM.
The molecule `Oc1ccc(-c2ccc(-c3cc(Nc4ccc(CN5CCCC5)cc4)n[nH]3)cc2)c(O)c1` yielded a concentration giving a half-maximal response (EC50) in test [1] of 41 nM. Also, the inhibition constant (Ki) in [2] was 0.18 nM.
The matching figures for `Oc1ccc(-c2ccc(-c3cc(Nc4ccc(CNCC5CC5)nc4)[nH]n3)cc2)c(O)c1`: 165 nM and 0.8 nM.
The molecule `Oc1ccc(-c2ccc(-c3cc(Nc4ccc(CNC5CC5)cc4)n[nH]3)cc2)c(O)c1` gave an EC50 in [1] of 60 nM. Moreover, in [2], the Ki turned out to be 0.38 nM.
